From patent US9675614B2, “PRMT5 inhibitors and uses thereof” (Epizyme, Inc., priority 2012, dated 2017)

These molecules were tested against PRMT5/MEP50 (Homo sapiens (Human), UniProt O14744) (assay: PRMT5 Biochemical Assay (PRMT5/MEP50 enzyme assay on peptide substrate, 3H-SAM Flashplate)). Details: not given.
PRMT5/MEP50, sequence (O14744 other isoform, or with tags, fused parts or gaps): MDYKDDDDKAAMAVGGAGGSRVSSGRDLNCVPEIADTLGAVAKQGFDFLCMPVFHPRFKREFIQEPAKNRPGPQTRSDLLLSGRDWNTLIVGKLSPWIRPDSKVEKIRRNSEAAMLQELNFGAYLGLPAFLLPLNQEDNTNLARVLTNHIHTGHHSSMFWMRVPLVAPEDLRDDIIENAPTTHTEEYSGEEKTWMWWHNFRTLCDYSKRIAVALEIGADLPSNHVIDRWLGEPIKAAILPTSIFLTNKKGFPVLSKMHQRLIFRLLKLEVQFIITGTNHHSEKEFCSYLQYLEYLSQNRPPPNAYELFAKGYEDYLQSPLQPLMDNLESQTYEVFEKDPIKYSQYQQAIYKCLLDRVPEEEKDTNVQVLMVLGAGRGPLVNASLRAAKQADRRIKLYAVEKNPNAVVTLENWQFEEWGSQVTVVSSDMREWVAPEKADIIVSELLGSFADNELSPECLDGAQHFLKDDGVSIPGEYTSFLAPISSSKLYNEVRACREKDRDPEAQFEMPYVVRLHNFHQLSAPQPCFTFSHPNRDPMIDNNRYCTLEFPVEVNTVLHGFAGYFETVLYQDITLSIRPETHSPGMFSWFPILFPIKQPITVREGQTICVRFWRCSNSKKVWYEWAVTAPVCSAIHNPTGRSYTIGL
PRMT5/MEP50, sequence (Q9BQA1 other isoform, or with tags, fused parts or gaps partner): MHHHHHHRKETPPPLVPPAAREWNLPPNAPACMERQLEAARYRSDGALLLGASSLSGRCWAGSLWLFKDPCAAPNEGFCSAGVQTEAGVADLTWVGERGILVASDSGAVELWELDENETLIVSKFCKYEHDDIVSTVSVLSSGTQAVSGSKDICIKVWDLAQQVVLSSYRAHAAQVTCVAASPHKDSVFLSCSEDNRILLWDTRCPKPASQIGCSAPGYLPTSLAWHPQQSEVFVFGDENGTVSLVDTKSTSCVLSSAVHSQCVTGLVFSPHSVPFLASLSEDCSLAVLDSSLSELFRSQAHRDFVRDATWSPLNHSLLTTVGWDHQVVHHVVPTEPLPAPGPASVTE
From the text: S-adenosylmethionine (SAM), S-adenosylhomocysteine (SAH), bicine, KCl, Tween20, dimethylsulfoxide (DMSO), bovine skin gelatin (BSG), and Tris(2-carboxyethyl)phosphine hydrochloride solution (TCEP) were purchased from Sigma-Aldrich at the highest level of purity possible. ^3H-SAM was purchase from American Radiolabeled Chemicals with a specific activity of 80 Ci/mmol. 384-well streptavidin Flashplates were purchased from PerkinElmer.
Peptide representative of human histone H4 residues 1-15 was synthesized with a C-terminal linker-affinity tag motif and a C-terminal amide cap by 21st Century Biochemicals. […] The sequence was Ac-[…][K-Biot]amide (SEQ ID NO.:3).
Full-length human MEP50 (NM_024102) clone was amplified from a human testis cDNA library incorporating a 5′ sequence encoding a 6-histidine tag (MHHHHHH) (SEQ ID NO.:5) fused directly to Arg 2 of MEP50. The amplified genes were subcloned into pENTR/D/TEV (Life Technologies) and subsequently transferred by Gateway™ attL×attR recombination to pDEST8 baculvirus expression vector (Life Technologies).
Recombinant baculovirus and Baculovirus-Infected Insect Cells (BIIC) were generated according to Bac-to-Bac kit instructions (Life Technologies) and Wasilko, 2006, respectively. Protein over-expression was accomplished by infecting exponentially growing Spodoptera frugiperda (SF9) cell culture at 1.2×10^6 cell/ml with a 5000 fold dilution of BIIC stock. Infections were carried out at 27° C. for 72 hours, harvested by centrifugation, and stored at −80° C. for purification.
Flag-PRMT5/6His-MeP50 was eluted with 300 mM Imidazole in the same buffer. […] Reference: Wasilko, D. J. and S. E. Lee: “TIPS: titerless infected-cells preservation and scale-up” Bioprocess J., 5 (2006), pp. 29-32.
General Procedure for PRMT5/MEP50 Enzyme Assays on Peptide Substrates.
The assays were all performed in a buffer consisting of 20 mM Bicine (pH=7.6), 1 mM TCEP, 0.005% BSG, and 0.002% Tween20, prepared on the day of use. Compounds in 100% DMSO (1 ul) were spotted into a polypropylene 384-well V-bottom plates (Greiner) using a Platemate Plus outfitted with a 384-channel head (Thermo Scientific). DMSO (1 ul) was added to Columns 11, 12, 23, 24, rows A-H for the maximum signal control and 1 ul of SAH, a known product and inhibitor of PRMT5/MEP50, was added to columns 11, 12, 23, 24, rows I-P for the minimum signal control. A cocktail (40 ul) containing the PRMT5/MEP50 enzyme and the peptide was added by Multidrop Combi (Thermo-Fisher). The compounds were allowed to incubate with PRMT5/MEP50 for 30 min at 25 degrees Celsius, then a cocktail (10 ul) containing ^3H-SAM was added to initiate the reaction (final volume=51 ul). The final concentrations of the components were as follows: PRMT5/MEP50 was 4 nM, ^3H-SAM was 75 nM, peptide was 40 nM, SAH in the minimum signal control wells was 100 uM, and the DMSO concentration was 1%. The assays were stopped by the addition of non-radioactive SAM (10 ul) to a final concentration of 600 uM, which dilutes the ^3H-SAM to a level where its incorporation into the peptide substrate is no longer detectable. 50 ul of the reaction in the 384-well polypropylene plate was then transferred to a 384-well Flashplate and the biotinylated peptides were allowed to bind to the streptavidin surface for at least 1 hour before being washed three times with 0.1% Tween20 in a Biotek ELx405 plate washer. The plates were then read in a PerkinElmer TopCount plate reader to measure the quantity of ^3H-labeled peptide bound to the Flashplate surface, measured as disintegrations per minute (dpm) or alternatively, referred to as counts per minute (cpm).
[formula] Where dpm=disintegrations per minute, cmpd=signal in assay well, and min and max are the respective minimum and maximum signal controls.
[formula] Where top and bottom are the normally allowed to float, but may be fixed at 100 or 0 respectively in a 3-parameter fit.
In the case of O=C(NC[C@H](O)CN1CCc2ccccc2C1)Oc1ccccc1 [Compound 7], the IC50 is reported as 1000 to 10000 nM.

Same assay, conditions: PRMT5/MEP50 biochemical assay; read-out: Biochemical IC50
O=C(NCC(O)CN1CCc2ccccc2C1)c1cccc(-c2ccccn2)c1 (stereo not shown) [Compound 1, N-(3-(3,4-dihydroisoquinolin-2(1H)-yl)-2-hydroxypropyl)-3-(pyridin-2-yl)benzamide] was tested, and the IC50 was under 100 nM.
Cn1nccc1-c1cccc(C(=O)NCC(O)CN2CCc3ccccc3C2)c1 (stereo not shown) [Compound 2, N-(3-(3,4-dihydroisoquinolin-2(1H)-yl)-2-hydroxypropyl)-3-(1-methyl-1H-pyrazol-5-yl)benzamide] gave an IC50 of under 100 nM.
O=C(NC[C@H](O)CN1CCc2ccccc2C1)c1ccccc1 [Compound 3, (S)—N-(3-(3,4-dihydroisoquinolin-2(1H)-yl)-2-hydroxypropyl)benzamide] was tested, and the IC50 was under 100 nM.
With O=C(NC[C@@H](O)CN1CCc2ccccc2C1)c1ccccc1 [Compound 4] the IC50 was 1000 to 10000 nM.
O=C(NC[C@H](O)CN1CCc2ccccc2C1)Nc1ccccc1 [Compound 5] showed an IC50 of 101 to 1000 nM.
Molecule O=C(NC[C@@H](O)CN1CCc2ccccc2C1)Nc1ccccc1 [Compound 6] has an IC50 of 1000 to 10000 nM.
O=C(NCC(O)CN1CCc2ccccc2C1)c1cccc(-c2cccnc2)c1 (stereo not shown) [Compound 8, N-(3-(3,4-dihydroisoquinolin-2(1H)-yl)-2-hydroxypropyl)-3-(pyridin-3-yl)benzamide] was tested, and the IC50 was under 100 nM.
In the case of O=C(NCC(O)CN1CCc2ccccc2C1)c1cccc(-c2ccncc2)c1 (stereo not shown) [Compound 9, N-(3-(3,4-dihydroisoquinolin-2(1H)-yl)-2-hydroxypropyl)-3-(pyridin-4-yl)benzamide], the IC50 is reported as under 100 nM.
O=C(NCC(O)CN1CCc2ccccc2C1)c1cccc(-c2cc[nH]n2)c1 (stereo not shown) [Compound 10] showed an IC50 of under 100 nM.
With O=C(NC[C@@H](O)CN1CCc2ccccc2C1)Oc1ccccc1 [Compound 11, (R)-phenyl (3-(3,4-dihydroisoquinolin-2(1H)-yl)-2-hydroxypropyl)carbamate] the IC50 was under 100 nM.
O=C(NCC(O)CN1CCc2ccccc2C1)c1ccc(-c2ccccn2)cc1 (stereo not shown) [Compound 13, N-(3-(3,4-dihydroisoquinolin-2(1H)-yl)-2-hydroxypropyl)-4-(pyridin-2-yl)benzamide] showed an IC50 of under 100 nM.
Work on O=C(NCC(O)CN1CCc2ccccc2C1)c1cccc(N2CCOCC2)c1 (stereo not shown) [Compound 14, N-(3-(3,4-dihydroisoquinolin-2(1H)-yl)-2-hydroxypropyl)-3-morpholinobenzamide] yielded an IC50 of under 100 nM.
With O=C(NCC(O)CN1CCc2ccccc2C1)c1cccc(CNC2CCOCC2)c1 (stereo not shown) [Compound 15, N-(3-(3,4-dihydroisoquinolin-2(1H)-yl)-2-hydroxypropyl)-3-(((tetrahydro-2H-pyran-4-yl)amino)methyl)benzamide] the IC50 was under 100 nM.
In the case of O=C(NCC(O)CN1CCc2ccccc2C1)c1cccc(NC2CCOCC2)c1 (stereo not shown) [Compound 16, N-(3-(3,4-dihydroisoquinolin-2(1H)-yl)-2-hydroxypropyl)-3-((tetrahydro-2H-pyran-4-yl)amino)benzamide], the IC50 is reported as under 100 nM.
O=C(NC[C@@H](O)CN1CCc2ccccc2C1)c1cccc(-c2ccccn2)c1 [Compound 19] showed an IC50 of under 100 nM.
O=C(NC[C@H](O)CN1CCc2ccccc2C1)c1cccc(-c2ccccn2)c1 [Compound 20] gave an IC50 of under 100 nM.
Molecule CS(=O)(=O)Nc1cccc(C(=O)NCC(O)CN2CCc3ccccc3C2)c1 (stereo not shown) [Compound 24] has an IC50 of under 100 nM.
CN(C)CCOc1cccc(C(=O)NCC(O)CN2CCc3ccccc3C2)c1 (stereo not shown) [Compound 28, N-(3-(3,4-dihydroisoquinolin-2(1H)-yl)-2-hydroxypropyl)-3-(2-(dimethylamino)ethoxy)benzamide] showed an IC50 of under 100 nM.
With O=C(NCC(O)CN1CCc2ccccc2C1)c1cccc(CN2CCNCC2)c1 (stereo not shown) [Compound 29] the IC50 was under 100 nM.
Molecule CN1CCN(Cc2cccc(C(=O)NCC(O)CN3CCc4ccccc4C3)c2)CC1 (stereo not shown) [Compound 30, N-(3-(3,4-dihydroisoquinolin-2(1H)-yl)-2-hydroxypropyl)-3-((4-methylpiperazin-1-yl)methyl)benzamide] has an IC50 of under 100 nM.
Work on CN1CCCC1c1cccc(C(=O)NCC(O)CN2CCc3ccccc3C2)c1 (stereo not shown) [Compound 34, N-(3-(3,4-dihydroisoquinolin-2(1H)-yl)-2-hydroxypropyl)-3-(1-methylpyrrolidin-2-yl) benzamide] yielded an IC50 of under 100 nM.
For O=C(NCC(O)CN1CCc2ccccc2C1)c1cccc(N2CCNCC2)c1 (stereo not shown) [Compound 35, N-(3-(3,4-dihydroisoquinolin-2(1H)-yl)-2-hydroxypropyl)-3-(piperazin-1-yl)benzamide], the IC50 was under 100 nM.
In the case of CN1CCN(c2cccc(C(=O)NCC(O)CN3CCc4ccccc4C3)c2)CC1 (stereo not shown) [Compound 36], the IC50 is reported as under 100 nM.
In the case of O=C(NCC(O)CN1CCc2ccccc2C1)c1cccc(C2CCNC2)c1 (stereo not shown) [Compound 37], the IC50 is reported as under 100 nM.
Work on CN1CCC(c2cccc(C(=O)NCC(O)CN3CCc4ccccc4C3)c2)C1 (stereo not shown) [Compound 38, N-(3-(3,4-dihydroisoquinolin-2(1H)-yl)-2-hydroxypropyl)-3-(1-methylpyrrolidin-3-yl)benzamide] yielded an IC50 of under 100 nM.
Molecule Cc1c(NC2CCOCC2)cccc1C(=O)NCC(O)CN1CCc2ccccc2C1 (stereo not shown) [Compound 40, N-(3-(3,4-dihydroisoquinolin-2(1H)-yl)-2-hydroxypropyl)-2-methyl-3-((tetrahydro-2H-pyran-4-yl)amino)benzamide] has an IC50 of under 100 nM.
With CCN(c1cccc(C(=O)NCC(O)CN2CCc3ccccc3C2)c1C)C1CCOCC1 (stereo not shown) [Compound 41] the IC50 was under 100 nM.
With O=C(NC[C@@H](O)CN1CCc2ccccc2C1)c1cccc(NC2CCOCC2)c1 [Compound 43] the IC50 was 101 to 1000 nM.
O=C(NC[C@H](O)CN1CCc2ccccc2C1)c1cccc(NC2CCOCC2)c1 [Compound 44, (S)—N-(3-(3,4-dihydroisoquinolin-2(1H)-yl)-2-hydroxypropyl)-3-((tetrahydro-2H-pyran-4-yl)amino)benzamide] gave an IC50 of under 100 nM.
Molecule O=C(NCC(O)CN1CCc2ccccc2C1)c1cccc(NC2CCOC2)c1 (stereo not shown) [Compound 45, N-(3-(3,4-dihydroisoquinolin-2(1H)-yl)-2-hydroxypropyl)-3-((tetrahydrofuran-3-yl)amino)benzamide] has an IC50 of under 100 nM.
O=C(NCC(O)CN1CCc2ccccc2C1)c1cncc(NC2CCOCC2)c1 (stereo not shown) [Compound 54, N-(3-(3,4-dihydroisoquinolin-2(1H)-yl)-2-hydroxypropyl)-5-((tetrahydro-2H-pyran-4-yl)amino)nicotinamide] showed an IC50 of under 100 nM.
For O=C(NCC(O)CN1CCc2ccccc2C1)c1cc(NC2CCOCC2)ccn1 (stereo not shown) [Compound 55, N-(3-(3,4-dihydroisoquinolin-2(1H)-yl)-2-hydroxypropyl)-4-((tetrahydro-2H-pyran-4-yl)amino)picolinamide], the IC50 was under 100 nM.
With O=C(NCC(O)CN1CCc2ccccc2C1)c1ccc(OC2CCOCC2)cc1 (stereo not shown) [Compound 58, N-(3-(3,4-dihydroisoquinolin-2(1H)-yl)-2-hydroxypropyl)-4-((tetrahydro-2H-pyran-4-yl)oxy)benzamide] the IC50 was under 100 nM.
For O=C(NCC(O)CN1CCc2ccccc2C1)c1cccc(CC2CCOCC2)c1 (stereo not shown) [Compound 59], the IC50 was under 100 nM.
With O=C(NCC(O)CN1CCc2ccccc2C1)c1cccc(NC2CCCOC2)c1 (stereo not shown) [Compound 60] the IC50 was 101 to 1000 nM.
With O=C(NCC(O)CN1CCc2ccccc2C1)c1cccc(NCCN2CCOCC2)c1 (stereo not shown) [Compound 61] the IC50 was 101 to 1000 nM.
Work on O=C(NCC(O)CN1CCc2ccccc2C1)c1ccnc(NC2CCOCC2)n1 (stereo not shown) [Compound 62] yielded an IC50 of under 100 nM.
In the case of O=C(NCC(O)CN1CCc2ccccc2C1)c1cc(NC2CCOCC2)ncn1 (stereo not shown) [Compound 63], the IC50 is reported as under 100 nM.
For O=C(NCC(O)CN1CCc2ccccc2C1)c1cc(Cl)cc(NC2CCOCC2)c1 (stereo not shown) [Compound 64], the IC50 was under 100 nM.
